The source of these data is patent US20080064667A1, “OXAZOLE DERIVATIVES OF TETRACYCLINES” (Wyeth, priority 2003, published 2008).

What all share (assay): MIC, broth microdilution (NCCLS)
Type in all cases: cell-based
On the technique in general: In broth dilution the organism is exposed to a series of concentrations in liquid medium.

Assay [1] concerns E. coli GC2203 (ATCC Control). The conditions noted are these: Escherichia coli, Mueller-Hinton II broth, 18-22 hours at 35° C. Put shortly: (§1)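 Serial antibiotic dilutions in Mueller-Hinton II broth were inoculated to 10^5 CFU/ml. Plates were incubated 18-22 hours at 35° C. in ambient air.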
Assay [2] relates to E. coli GC4560 (IMP mutant). The conditions noted are these: Escherichia coli. In a few lines: as §1
In assay [3] the test system is E. coli GC4559 (parent GC4560). The conditions noted are these: Escherichia coli, Mueller-Hinton II broth, 18-22 hours at 35° C. In a few lines: as §1
The test system of assay [4] is S. aureus GC2216 (ATCC Control). The conditions noted are these: Staphylococcus aureus, Mueller-Hinton II broth, 18-22 hours at 35° C. In a few lines: as §1
Assay [5] has as its system S. pyogenes* GC4563 (Clinical). The conditions noted are these: Streptococcus pyogenes, Mueller-Hinton II broth, 18-22 hours at 35° C. In a few lines:
as §1

Assay [6] concerns S. aureus GC1131 (Clinical). The conditions noted are these: Staphylococcus aureus, Mueller-Hinton II broth, 18-22 hours at 35° C. In a few lines:
as §1

Assay [7] has as its system S. pneumoniae* GC1894 (Clinical). The conditions noted are these: Streptococcus pneumoniae, Mueller-Hinton II broth, 18-22 hours at 35° C. Put shortly:
as §1

In assay [8] the test system is S. aureus GC6467 (tet(M) + (K)). The conditions noted are these: Staphylococcus aureus. Put shortly:
as §1

Assay [9] concerns H. influenzae<> GC6896 (ATCC Control). The conditions noted are these: Haemophilus influenzae, Mueller-Hinton II broth, 18-22 hours at 35° C. Put shortly:
as §1

Assay [10] has as its system C. albicans GC3066 ATCC (Control). The conditions noted are these: Candida albicans, Mueller-Hinton II broth, 18-22 hours at 35° C.
The subject of assay [11] is S. aureus GC1079 (tet(K)). The conditions noted are these: Staphylococcus aureus, Mueller-Hinton II broth, 18-22 hours at 35° C. Put shortly:
as §1

Assay [12] has as its system S. aureus GC6466 (tet(M)). The conditions noted are these: Staphylococcus aureus, Mueller-Hinton II broth, 18-22 hours at 35° C. Put shortly:
as §1

Assay [13] concerns E. faecalis GC2242 (Van-resistant). The conditions noted are these: Enterococcus faecalis, Mueller-Hinton II broth, 18-22 hours at 35° C. Put shortly: as §1
In assay [14] the test system is M. catarrhalis* GC6907 (Clinical). The conditions noted are these: Moraxella catarrhalis, Mueller-Hinton II broth, 18-22 hours at 35° C. In a few lines:
as §1

Assay [15] concerns S. aureus GC4536 (Smith MP -In Vivo). The conditions noted are these: Staphylococcus aureus, Mueller-Hinton II broth, 18-22 hours at 35° C. In a few lines: as §1
Assay [16] concerns S. pneumoniae* GC4465 (Clinical). The conditions noted are these: Streptococcus pneumoniae, Mueller-Hinton II broth, 18-22 hours at 35° C. Put shortly: as §1
Assay [17] deals with E. faecalis GC4555 (ATCC Control). The conditions noted are these: Enterococcus faecalis, Mueller-Hinton II broth, 18-22 hours at 35° C. Put shortly:
as §1

Assay [18] relates to E. faecalis GC2267 (tet(L) + (M) + (S)). The conditions noted are these: Enterococcus faecalis. In a few lines: as §1
For the next assay, the system named is E. coli GC2270 (tet(M)). The conditions noted are these: Escherichia coli. Put shortly: as §1
The next assay deals with E. coli GC1073 (tet(B)). The conditions noted are these: Escherichia coli. In a few lines: as §1

≈ marks a conversion by molar mass, not a printed value.

As for `CN(C)Cc1nc2cc(N(C)C)c3c(c2o1)C(=O)C1=C(O)[C@]2(O)C(=O)C(C(N)=O)=C(O)[C@@H](N(C)C)[C@@H]2C[C@@H]1C3` [Example 36, (6aR,7aS,8S,11aS)-5,8-bis(dimethylamino)-2-[(dimethylamino)methyl]-9,11a,12-trihydroxy-11,13-dioxo-6,6a,7,7a,8,11,11a,13-octahydrotetraceno[2,1-d][1,3]oxazole-10-carboxamide], the MIC in assay [1] worked out at 2 µg/mL (≈ 3.71 µM); in assay [2], 1 µg/mL (≈ 1.85 µM); in assay [3], 4 µg/mL (≈ 7.41 µM); in assay [4] it was 2 µg/mL (≈ 3.71 µM); in assay [5], 1 µg/mL (≈ 1.85 µM); in [6], 4 µg/mL (≈ 7.41 µM). For the same compound, the MIC in assay [7] was 1 µg/mL (≈ 1.85 µM); in assay [8] it was 16 µg/mL (≈ 29.7 µM); in assay [9] it was 4 µg/mL (≈ 7.41 µM); in [10], above 64 µg/mL; in assay [11] it was 4 µg/mL (≈ 7.41 µM); in assay [12], 4 µg/mL (≈ 7.41 µM). Besides, the MIC stood at 4 µg/mL (≈ 7.41 µM) in assay [13]; 1 µg/mL (≈ 1.85 µM) in assay [14]; 4 µg/mL (≈ 7.41 µM) in [15]; 1 µg/mL (≈ 1.85 µM) in [16]; 4 µg/mL (≈ 7.41 µM) in assay [17].
Turning to `CCCCNCc1nc2cc(N(C)C)c3c(c2o1)C(=O)C1=C(O)[C@]2(O)C(=O)C(C(N)=O)=C(O)[C@@H](N(C)C)[C@@H]2C[C@@H]1C3` [Example 39, (6aR,7aS,8S,11aS)-2-[(butylamino)methyl]-5,8-bis(dimethylamino)-9,11a,12-trihydroxy-11,13-dioxo-6,6a,7,7a,8,11,11a,13-octahydrotetraceno[2,1-d][1,3]oxazole-10-carboxamide], the MIC in assay [1] is 32 µg/mL (≈ 56.4 µM); in assay [2], 8 µg/mL (≈ 14.1 µM); in assay [3], 32 µg/mL (≈ 56.4 µM); in assay [4], 32 µg/mL (≈ 56.4 µM); in assay [5], 8 µg/mL (≈ 14.1 µM); in assay [6], 32 µg/mL (≈ 56.4 µM). Also, the MIC is 8 µg/mL (≈ 14.1 µM) in assay [7]; 64 µg/mL (≈ 113 µM) in assay [18]; above 64 µg/mL in [8]; 64 µg/mL (≈ 113 µM) in assay [9]; above 64 µg/mL in [10]; 64 µg/mL (≈ 113 µM) in assay [11]. The MIC amounted to 32 µg/mL (≈ 56.4 µM) in [12]; 32 µg/mL (≈ 56.4 µM) in [13]; 8 µg/mL (≈ 14.1 µM) in assay [14]; 32 µg/mL (≈ 56.4 µM) in [15]; 8 µg/mL (≈ 14.1 µM) in assay [16]; 32 µg/mL (≈ 56.4 µM) in assay [17].
Consider `CN(C)c1ccc(-c2nc3cc(N(C)C)c4c(c3o2)C(=O)C2=C(O)[C@]3(O)C(=O)C(C(N)=O)=C(O)[C@@H](N(C)C)[C@@H]3C[C@@H]2C4)cc1` [Example 8, (6aR,7aS,8S,11aS)-5,8-bis(dimethylamino)-2-[4-(dimethylamino)phenyl]-9,11a,12-trihydroxy-11,13-dioxo-6,6a,7,7a,8,11,11a,13-octahydrotetraceno[2,1-d][1,3]oxazole-10-carboxamide], for which the MIC in assay [1] is above 64 µg/mL; in [2], 16 µg/mL (≈ 26.6 µM); in the assay with E. coli GC2270 (tet(M)), above 64 µg/mL; in assay [3], above 64 µg/mL; in assay [4], 8 µg/mL (≈ 13.3 µM); in [5], 16 µg/mL (≈ 26.6 µM). Also, the MIC was 8 µg/mL (≈ 13.3 µM) in assay [6]; 16 µg/mL (≈ 26.6 µM) in [7]; 16 µg/mL (≈ 26.6 µM) in assay [18]; above 64 µg/mL in the assay on E. coli GC1073 (tet(B)); above 64 µg/mL in [9]; above 64 µg/mL in assay [10]. The MIC in [11] came to 16 µg/mL (≈ 26.6 µM); in assay [12], 16 µg/mL (≈ 26.6 µM); in assay [13], 8 µg/mL (≈ 13.3 µM); in assay [14], 64 µg/mL (≈ 106 µM); in assay [15] it was 16 µg/mL (≈ 26.6 µM); in [16], 32 µg/mL (≈ 53.2 µM). This compound showed an MIC in [17] of 32 µg/mL (≈ 53.2 µM).
Regarding `CN(C)c1cc2nc(-c3ccc4c(c3)OCO4)oc2c2c1C[C@H]1C[C@H]3[C@H](N(C)C)C(O)=C(C(N)=O)C(=O)[C@@]3(O)C(O)=C1C2=O` [Example 14, (6aR,7aS,8S,11aS)-2-(1,3-benzodioxol-5-yl)-5,8-bis(dimethylamino)-9,11a,12-trihydroxy-11,13-dioxo-6,6a,7,7a,8,11,11a,13-octahydrotetraceno[2,1-d][1,3]oxazole-10-carboxamide], the MIC is above 64 µg/mL in assay [1]; 16 µg/mL (≈ 26.6 µM) in assay [2]; above 64 µg/mL in the assay with E. coli GC2270 (tet(M)); above 64 µg/mL in [3]; 4 µg/mL (≈ 6.64 µM) in assay [4]; 16 µg/mL (≈ 26.6 µM) in assay [5]. For the same compound, the MIC in assay [6] is 4 µg/mL (≈ 6.64 µM); in [7] it was 16 µg/mL (≈ 26.6 µM); in the assay on E. coli GC1073 (tet(B)), above 64 µg/mL; in [8], 8 µg/mL (≈ 13.3 µM); in assay [9] it was above 64 µg/mL; in assay [10], above 64 µg/mL. The MIC in assay [11] is 4 µg/mL (≈ 6.64 µM); in assay [12] it was 4 µg/mL (≈ 6.64 µM); in [13], 4 µg/mL (≈ 6.64 µM); in assay [14], 4 µg/mL (≈ 6.64 µM); in [15] it was 4 µg/mL (≈ 6.64 µM); in assay [16] it was 16 µg/mL (≈ 26.6 µM). In assay [17], this compound registered an MIC of 8 µg/mL (≈ 13.3 µM).
Regarding `CCCNCc1nc2cc(N(C)C)c3c(c2o1)C(=O)C1=C(O)[C@]2(O)C(=O)C(C(N)=O)=C(O)[C@@H](N(C)C)[C@@H]2C[C@@H]1C3` [Example 38, (6aR,7aS,8S,11aS)-5,8-bis(dimethylamino)-9,11a,12-trihydroxy-11,13-dioxo-2-[(propylamino)methyl]-6,6a,7,7a,8,11,11a,13-octahydrotetraceno[2,1-d][1,3]oxazole-10-carboxamide], the MIC in assay [1] was 32 µg/mL (≈ 57.8 µM); in assay [2], 8 µg/mL (≈ 14.5 µM); in [3], 32 µg/mL (≈ 57.8 µM); in assay [4], 32 µg/mL (≈ 57.8 µM); in assay [5] it was 4 µg/mL (≈ 7.23 µM); in assay [6] it was 32 µg/mL (≈ 57.8 µM). The MIC in assay [7] is 4 µg/mL (≈ 7.23 µM); in assay [18], 64 µg/mL (≈ 116 µM); in assay [8], above 64 µg/mL; in assay [9], 64 µg/mL (≈ 116 µM); in [10], above 64 µg/mL; in assay [11] it was 64 µg/mL (≈ 116 µM). The MIC in [12] worked out at 32 µg/mL (≈ 57.8 µM); in [13], 16 µg/mL (≈ 28.9 µM); in assay [14], 4 µg/mL (≈ 7.23 µM); in [15], 16 µg/mL (≈ 28.9 µM); in [16] it was 4 µg/mL (≈ 7.23 µM); in [17], 16 µg/mL (≈ 28.9 µM).
For `CN(C)c1cc2nc(-c3ccc(OCc4ccccc4)cc3)oc2c2c1C[C@H]1C[C@H]3[C@H](N(C)C)C(O)=C(C(N)=O)C(=O)[C@@]3(O)C(O)=C1C2=O` [Example 11, (6aR,7aS,8S,11aS)-2-[4-(benzyloxy)phenyl]-5,8-bis(dimethylamino)-9,11a,12-trihydroxy-11,13-dioxo-6,6a,7,7a,8,11,11a,13-octahydrotetraceno[2,1-d](1,3]oxazole-10-carboxamide], the MIC in assay [1] is above 64 µg/mL; in assay [2], above 64 µg/mL; with E. coli GC2270 (tet(M)), above 64 µg/mL; in assay [3], above 64 µg/mL; in [4], 64 µg/mL (≈ 96.3 µM); in assay [5], 32 µg/mL (≈ 48.1 µM). For the same compound, the MIC was 32 µg/mL (≈ 48.1 µM) in [6]; 32 µg/mL (≈ 48.1 µM) in assay [7]; above 64 µg/mL in assay [18]; above 64 µg/mL in the assay with E. coli GC1073 (tet(B)); above 64 µg/mL in assay [9]; above 64 µg/mL in assay [10]. In addition, the MIC in assay [11] came to 64 µg/mL (≈ 96.3 µM); in assay [12], 64 µg/mL (≈ 96.3 µM); in [13] it was 64 µg/mL (≈ 96.3 µM); in [14], 32 µg/mL (≈ 48.1 µM); in assay [15], 64 µg/mL (≈ 96.3 µM); in assay [16] it was 32 µg/mL (≈ 48.1 µM). In [17], the MIC was 64 µg/mL (≈ 96.3 µM).
